Columns and labels:
Assay in all cases: relative viability (nuclei count vs DMSO), 5 days (fraction); higher = more cells survive
NCI-H3122 = tested on: NCI-H3122
In short: (§1)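 Lung cancer cell lines were pin-tool dosed in 1536-well plates on the day after seeding, with either a lone drug or a fixed anchor-drug dose plus five library-drug doses (not always all listed) in √10 steps. Nuclei were counted on 4× images after 5 days. Relative viability is the ratio of treated-well to vehicle-well nuclei counts, with each value a median of duplicate plates.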

COR-L 105 = tested on: COR-L 105
In short: as §1

ABC-1 = tested on: ABC-1
In short: as §1

NCI-H2126 = tested on: NCI-H2126
In short: as §1

NCI-H2085 = tested on: NCI-H2085
In short: as §1

HOP-62 = tested on: HOP-62
In short: as §1

EMC-BAC-2 = tested on: EMC-BAC-2
In short: as §1

NCI-H358 = tested on: NCI-H358
In short: as §1

EPLC-272H = tested on: EPLC-272H
In short: as §1

NCI-H1915 = tested on: NCI-H1915
In short: as §1

NCI-H1755 = tested on: NCI-H1755
In short: as §1

NCI-H322M = tested on: NCI-H322M
In short: as §1

HCC-15 = tested on: HCC-15
In short: as §1

ChaGo-K-1 = tested on: ChaGo-K-1
In short: as §1

NCI-H1666 = tested on: NCI-H1666
In short: as §1

NCI-H1975 = tested on: NCI-H1975
In short: as §1

NCI-H2023 = tested on: NCI-H2023
In short: as §1

NCI-H441 = tested on: NCI-H441
In short: as §1

CAL-12T = tested on: CAL-12T
In short: as §1

LXF-289 = tested on: LXF-289
In short: as §1

UMC-11 = tested on: UMC-11
In short: as §1

HCC-78 = tested on: HCC-78
In short: as §1

Cc1sc2c(c1C)C(c1ccc(Cl)cc1)=N[C@@H](CC(=O)OC(C)(C)C)c1nnc(C)n1-2 [JQ1] + COc1cc2c(Oc3ccc(NC(=O)C4(C(=O)Nc5ccc(F)cc5)CC4)cc3F)ccnc2cc1OCCCN1CCOCC1 [Foretinib] (partner 0.25 µM)
relative viability (NCI-H3122; first compound 0.04 µM): 1.04
relative viability (NCI-H3122; first compound 0.1265 µM): 0.814
relative viability (NCI-H3122; first compound 0.4 µM): 0.766
relative viability (NCI-H3122; first compound 1.265 µM): 0.698
relative viability (NCI-H3122; first compound 4 µM): 0.532
relative viability (COR-L 105; first compound 0.04 µM): 0.794
relative viability (COR-L 105; first compound 0.1265 µM): 0.604
relative viability (COR-L 105; first compound 0.4 µM): 0.656
relative viability (COR-L 105; first compound 1.265 µM): 0.219
relative viability (COR-L 105; first compound 4 µM): 0.272
relative viability (ABC-1; first compound 0.04 µM): 0.916
relative viability (ABC-1; first compound 0.1265 µM): 0.859
relative viability (ABC-1; first compound 0.4 µM): 0.89
relative viability (ABC-1; first compound 1.265 µM): 0.395
relative viability (ABC-1; first compound 4 µM): 0.399
relative viability (NCI-H2126; first compound 0.04 µM): 1.22
relative viability (NCI-H2126; first compound 0.1265 µM): 1.15
relative viability (NCI-H2126; first compound 0.4 µM): 1.03
relative viability (NCI-H2126; first compound 1.265 µM): 0.655
relative viability (NCI-H2126; first compound 4 µM): 0.693
relative viability (NCI-H2085; first compound 0.04 µM): 0.855
relative viability (NCI-H2085; first compound 0.1265 µM): 0.821
relative viability (NCI-H2085; first compound 0.4 µM): 0.578
relative viability (NCI-H2085; first compound 1.265 µM): 0.428
relative viability (NCI-H2085; first compound 4 µM): 0.37
relative viability (HOP-62; first compound 0.04 µM): 0.982
relative viability (HOP-62; first compound 0.1265 µM): 0.848
relative viability (HOP-62; first compound 0.4 µM): 0.348
relative viability (HOP-62; first compound 1.265 µM): 0.241
relative viability (HOP-62; first compound 4 µM): 0.124
relative viability (EMC-BAC-2; first compound 0.04 µM): 1.04
relative viability (EMC-BAC-2; first compound 0.1265 µM): 0.868
relative viability (EMC-BAC-2; first compound 0.4 µM): 0.584
relative viability (EMC-BAC-2; first compound 1.265 µM): 0.376
relative viability (EMC-BAC-2; first compound 4 µM): 0.556
relative viability (NCI-H358; first compound 0.04 µM): 0.686
relative viability (NCI-H358; first compound 0.1265 µM): 0.83
relative viability (NCI-H358; first compound 0.4 µM): 0.685
relative viability (NCI-H358; first compound 1.265 µM): 0.259
relative viability (NCI-H358; first compound 4 µM): 0.309
relative viability (EPLC-272H; first compound 0.04 µM): 0.639
relative viability (EPLC-272H; first compound 0.1265 µM): 0.508
relative viability (EPLC-272H; first compound 0.4 µM): 0.454
relative viability (EPLC-272H; first compound 1.265 µM): 0.247
relative viability (EPLC-272H; first compound 4 µM): 0.191
relative viability (NCI-H1915; first compound 0.04 µM): 1.09
relative viability (NCI-H1915; first compound 0.1265 µM): 1.03
relative viability (NCI-H1915; first compound 0.4 µM): 0.732
relative viability (NCI-H1915; first compound 1.265 µM): 0.653
relative viability (NCI-H1915; first compound 4 µM): 0.449
relative viability (NCI-H1755; first compound 0.04 µM): 0.896
relative viability (NCI-H1755; first compound 0.1265 µM): 0.831
relative viability (NCI-H1755; first compound 0.4 µM): 0.945
relative viability (NCI-H1755; first compound 1.265 µM): 0.793
relative viability (NCI-H1755; first compound 4 µM): 0.634
relative viability (NCI-H322M; first compound 0.04 µM): 0.955
relative viability (NCI-H322M; first compound 0.1265 µM): 1.15
relative viability (NCI-H322M; first compound 0.4 µM): 0.753
relative viability (NCI-H322M; first compound 1.265 µM): 0.513
relative viability (NCI-H322M; first compound 4 µM): 0.441
relative viability (HCC-15; first compound 0.04 µM): 0.914
relative viability (HCC-15; first compound 0.4 µM): 0.767
relative viability (HCC-15; first compound 1.265 µM): 0.66
relative viability (HCC-15; first compound 4 µM): 0.589
relative viability (ChaGo-K-1; first compound 0.04 µM): 0.95
relative viability (ChaGo-K-1; first compound 0.1265 µM): 0.827
relative viability (ChaGo-K-1; first compound 0.4 µM): 0.929
relative viability (ChaGo-K-1; first compound 1.265 µM): 0.7
relative viability (ChaGo-K-1; first compound 4 µM): 0.583
relative viability (NCI-H1666; first compound 0.04 µM): 0.855
relative viability (NCI-H1666; first compound 0.1265 µM): 0.924
relative viability (NCI-H1666; first compound 0.4 µM): 0.818
relative viability (NCI-H1666; first compound 1.265 µM): 0.634
relative viability (NCI-H1666; first compound 4 µM): 0.653
relative viability (NCI-H1975; first compound 0.04 µM): 0.916
relative viability (NCI-H1975; first compound 0.1265 µM): 0.731
relative viability (NCI-H1975; first compound 0.4 µM): 0.713
relative viability (NCI-H1975; first compound 1.265 µM): 0.541
relative viability (NCI-H1975; first compound 4 µM): 0.353
relative viability (NCI-H2023; first compound 0.04 µM): 0.779
relative viability (NCI-H2023; first compound 0.1265 µM): 0.816
relative viability (NCI-H2023; first compound 0.4 µM): 0.597
relative viability (NCI-H2023; first compound 1.265 µM): 0.252
relative viability (NCI-H2023; first compound 4 µM): 0.199
relative viability (NCI-H441; first compound 0.04 µM): 1.08
relative viability (NCI-H441; first compound 0.1265 µM): 0.981
relative viability (NCI-H441; first compound 0.4 µM): 0.842
relative viability (NCI-H441; first compound 1.265 µM): 0.832
relative viability (NCI-H441; first compound 4 µM): 0.57
relative viability (CAL-12T; first compound 0.04 µM): 1.16
relative viability (CAL-12T; first compound 0.1265 µM): 0.747
relative viability (CAL-12T; first compound 0.4 µM): 0.858
relative viability (CAL-12T; first compound 1.265 µM): 0.351
relative viability (CAL-12T; first compound 4 µM): 0.307
relative viability (LXF-289; first compound 0.04 µM): 0.955
relative viability (LXF-289; first compound 0.1265 µM): 0.978
relative viability (LXF-289; first compound 0.4 µM): 0.762
relative viability (LXF-289; first compound 1.265 µM): 0.758
relative viability (LXF-289; first compound 4 µM): 0.69
relative viability (UMC-11; first compound 0.04 µM): 0.954
relative viability (UMC-11; first compound 0.1265 µM): 0.663
relative viability (UMC-11; first compound 0.4 µM): 0.372
relative viability (UMC-11; first compound 1.265 µM): 0.286
relative viability (UMC-11; first compound 4 µM): 0.238
relative viability (HCC-78; first compound 0.04 µM): 0.557
relative viability (HCC-78; first compound 0.1265 µM): 0.506
relative viability (HCC-78; first compound 0.4 µM): 0.495
relative viability (HCC-78; first compound 1.265 µM): 0.509
relative viability (HCC-78; first compound 4 µM): 0.453

Reference: the supplement of paper PMC10307832
